Measurements reported in patent publication US10131652B2, “Pyrimidinyloxy benzene derivatives as herbicides” (E. I. DU PONT DE NEMOURS AND COMPANY, priority 2014, dated 2018).

What was measured:
Assay type in all cases: in vivo
[1] = test system: barnyardgrass (Echinochloa crus-galli); experiment: Test C flooded paddy test plant response; settings: Flood, 250 g ai/ha; scale of 0 to 100 where 0 is no effect and 100 is complete control; 13 to 15 days
Method in brief: (§1)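 Scale 0 (no effect) to 100 (complete control), assigned visually versus controls after 13–15 d greenhouse. Application: directly to paddy water, 3 cm flood depth kept constant, 2-leaf stage.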

[2] = test system: ducksalad (Heteranthera limosa); experiment: Test C flooded paddy test plant response; settings: Flood, 250 g ai/ha; scale of 0 to 100 where 0 is no effect and 100 is complete control; 13 to 15 days
Method in brief: as §1

rice (Oryza sativa) = experiment: Test C flooded paddy test plant response; settings: Flood, 250 g ai/ha; scale of 0 to 100 where 0 is no effect and 100 is complete control; 13 to 15 days
Method in brief: as §1

[3] = test system: small-flower umbrella sedge (Cyperus difformis); experiment: Test C flooded paddy test plant response; settings: Flood, 250 g ai/ha; scale of 0 to 100 where 0 is no effect and 100 is complete control; 13 to 15 days
Method in brief: as §1

[4] = test system: velvetleaf (Abutilon theophrasti); experiment: Test B pre-/postemergence plant response
Method in brief: (§2)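 Steps: plant seeds in loam soil–sand mix; spray soil preemergence, and in parallel spray 2–10 cm one- to two-leaf plants postemergence; hold ~10 days in greenhouse; visually rate injury against untreated controls (0 = no effect, 100 = complete control).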

[5] = test system: morningglory (Ipomoea spp.); experiment: Test B pre-/postemergence plant response
Method in brief: as §2

corn (Zea mays) = experiment: Test B pre-/postemergence plant response
Method in brief: as §2

[6] = test system: barnyardgrass (Echinochloa crus-galli); experiment: Test B pre-/postemergence plant response
Method in brief: as §2

[7] = test system: wheat (Triticum aestivum); experiment: Test B pre-/postemergence plant response
Method in brief: as §2

[8] = test system: giant foxtail (Setaria faberii); experiment: Test B pre-/postemergence plant response
Method in brief: as §2

[9] = test system: pigweed (Amaranthus retroflexus); experiment: Test B pre-/postemergence plant response
Method in brief: as §2

[10] = test system: large (Lg) crabgrass (Digitaria sanguinalis); experiment: Test B pre-/postemergence plant response
Method in brief: as §2

[11] = 125 g ai/ha, postemergence, 0 to 100 scale, 0 no effect, 100 complete control
[12] = 500 g ai/ha, postemergence, 0 to 100 scale, 0 no effect, 100 complete control
[13] = Preemergence, 125 g ai/ha, 0 to 100 scale (0 no effect, 100 complete control)
[14] = Preemergence, 500 g ai/ha, 0 to 100 scale where 0 is no effect and 100 is complete control
[15] = Postemergence, 500 g ai/ha, 0 to 100 scale (0 no effect, 100 complete control)
[16] = Preemergence, 125 g ai/ha, 0 to 100 scale where 0 is no effect and 100 is complete control
[17] = Preemergence, 500 g ai/ha, 0 to 100 scale (0 no effect, 100 complete control)

## Fc1cnc(Oc2ccccc2-c2cc(C(F)(F)F)on2)nc1 [Compound 206]
[1]
  Barnyardgrass plant response rating: 0
[2]
  Ducksalad plant response rating: 70
Rice (Oryza sativa)
  Rice plant response rating: 0
[3]
  Sedge, Umbrella plant response rating: 70
[4]; [11]
  Plant response rating, Velvetleaf: 30
[4]; [12]
  Plant response rating, Velvetleaf: 60
[4]; [13]
  Velvetleaf plant response rating: 30
[4]; [14]
  Plant response rating, Velvetleaf: 40
[5]; [11]
  Plant response rating, Morningglory: 20
[5]; [12]
  Plant response rating, Morningglory: 30
[5]; [13]
  Morningglory plant response rating: 0
[5]; [14]
  Plant response rating, Morningglory: 0
Corn (Zea mays); [11]
  Plant response rating, Corn: 0
Corn (Zea mays); [12]
  Plant response rating, Corn: 0
Corn (Zea mays); [13]
  Corn plant response rating: 0
Corn (Zea mays); [14]
  Plant response rating, Corn: 0
[6]; [11]
  Plant response rating, Barnyardgrass: 0
[6]; [12]
  Plant response rating, Barnyardgrass: 10
[6]; [13]
  Barnyardgrass plant response rating: 0
[6]; [14]
  Plant response rating, Barnyardgrass: 30
[7]; [11]
  Plant response rating, Wheat: 0
[7]; [12]
  Plant response rating, Wheat: 0
[7]; [13]
  Wheat plant response rating: 0
[7]; [14]
  Plant response rating, Wheat: 0
[8]; [11]
  Plant response rating, Foxtail, Giant: 0
[8]; [12]
  Plant response rating, Foxtail, Giant: 20
[8]; [13]
  Foxtail, Giant plant response rating: 10
[8]; [14]
  Plant response rating, Foxtail, Giant: 60
[9]; [11]
  Plant response rating, Pigweed: 40
[9]; [12]
  Plant response rating, Pigweed: 70
[9]; [13]
  Pigweed plant response rating: 50
[9]; [14]
  Plant response rating, Pigweed: 80
[10]; [11]
  Plant response rating, Crabgrass, Large: 10
[10]; [12]
  Plant response rating, Crabgrass, Large: 20
[10]; [13]
  Crabgrass, Large plant response rating: 10
[10]; [14]
  Plant response rating, Crabgrass, Large: 60

## Cc1ccc(Oc2ncc(Cl)cn2)c(-c2cccc(OC(F)(F)F)c2)c1 [Compound 44]
[1]
  Barnyardgrass plant response rating: 0
[2]
  Ducksalad plant response rating: 0
Rice (Oryza sativa)
  Rice plant response rating: 0
[3]
  Sedge, Umbrella plant response rating: 0
[4]; [11]
  Plant response rating, Velvetleaf: 30
[4]; [15]
  Plant response rating, Velvetleaf: 70
[4]; [16]
  Plant response rating, Velvetleaf: 0
[4]; [14]
  Plant response rating, Velvetleaf: 20
[5]; [11]
  Plant response rating, Morningglory: 20
[5]; [15]
  Plant response rating, Morningglory: 30
[5]; [16]
  Plant response rating, Morningglory: 0
[5]; [14]
  Plant response rating, Morningglory: 0
Corn (Zea mays); [11]
  Plant response rating, Corn: 0
Corn (Zea mays); [15]
  Plant response rating, Corn: 20
Corn (Zea mays); [16]
  Plant response rating, Corn: 0
Corn (Zea mays); [14]
  Plant response rating, Corn: 0
[6]; [11]
  Plant response rating, Barnyardgrass: 10
[6]; [15]
  Plant response rating, Barnyardgrass: 20
[6]; [16]
  Plant response rating, Barnyardgrass: 0
[6]; [14]
  Plant response rating, Barnyardgrass: 10
[7]; [11]
  Plant response rating, Wheat: 0
[7]; [15]
  Plant response rating, Wheat: 0
[7]; [16]
  Plant response rating, Wheat: 0
[7]; [14]
  Plant response rating, Wheat: 0
[8]; [11]
  Plant response rating, Foxtail, Giant: 0
[8]; [15]
  Plant response rating, Foxtail, Giant: 10
[8]; [16]
  Plant response rating, Foxtail, Giant: 0
[8]; [14]
  Plant response rating, Foxtail, Giant: 10
[9]; [11]
  Plant response rating, Pigweed: 20
[9]; [15]
  Plant response rating, Pigweed: 50
[9]; [16]
  Plant response rating, Pigweed: 0
[9]; [14]
  Plant response rating, Pigweed: 10
[10]; [11]
  Plant response rating, Crabgrass, Large: 10
[10]; [15]
  Plant response rating, Crabgrass, Large: 20
[10]; [16]
  Plant response rating, Crabgrass, Large: 10
[10]; [14]
  Plant response rating, Crabgrass, Large: 70

## FC(F)(F)c1cnc(Oc2ccccc2-c2cncs2)nc1 [Compound 13]
[1]
  Barnyardgrass plant response rating: 0
[2]
  Ducksalad plant response rating: 40
Rice (Oryza sativa)
  Rice plant response rating: 0
[3]
  Sedge, Umbrella plant response rating: 0
[4]; [11]
  Plant response rating, Velvetleaf: 30
[4]; [15]
  Plant response rating, Velvetleaf: 60
[4]; [16]
  Plant response rating, Velvetleaf: 0
[4]; [17]
  Plant response rating, Velvetleaf: 10
[5]; [11]
  Plant response rating, Morningglory: 0
[5]; [15]
  Plant response rating, Morningglory: 10
[5]; [16]
  Plant response rating, Morningglory: 0
[5]; [17]
  Plant response rating, Morningglory: 0
Corn (Zea mays); [11]
  Plant response rating, Corn: 0
Corn (Zea mays); [15]
  Plant response rating, Corn: 10
Corn (Zea mays); [16]
  Plant response rating, Corn: 0
Corn (Zea mays); [17]
  Plant response rating, Corn: 0
[6]; [11]
  Plant response rating, Barnyardgrass: 0
[6]; [15]
  Plant response rating, Barnyardgrass: 0
[6]; [16]
  Plant response rating, Barnyardgrass: 0
[6]; [17]
  Plant response rating, Barnyardgrass: 0
[7]; [11]
  Plant response rating, Wheat: 0
[7]; [15]
  Plant response rating, Wheat: 0
[7]; [16]
  Plant response rating, Wheat: 0
[7]; [17]
  Plant response rating, Wheat: 0
[8]; [11]
  Plant response rating, Foxtail, Giant: 0
[8]; [15]
  Plant response rating, Foxtail, Giant: 0
[8]; [16]
  Plant response rating, Foxtail, Giant: 0
[8]; [17]
  Plant response rating, Foxtail, Giant: 10
[9]; [11]
  Plant response rating, Pigweed: 0
[9]; [15]
  Plant response rating, Pigweed: 40
[9]; [16]
  Plant response rating, Pigweed: 0
[9]; [17]
  Plant response rating, Pigweed: 80
[10]; [11]
  Plant response rating, Crabgrass, Large: 0
[10]; [15]
  Plant response rating, Crabgrass, Large: 10
[10]; [16]
  Plant response rating, Crabgrass, Large: 0
[10]; [17]
  Plant response rating, Crabgrass, Large: 10

## FC(F)(F)c1cccc(-c2ccccc2Oc2ncc(Cl)cn2)n1 [Compound 19]
[1]
  Barnyardgrass plant response rating: 0
[2]
  Ducksalad plant response rating: 0
Rice (Oryza sativa)
  Rice plant response rating: 0
[3]
  Sedge, Umbrella plant response rating: 0
[4]; [11]
  Plant response rating, Velvetleaf: 0
[4]; [15]
  Plant response rating, Velvetleaf: 0
[4]; [16]
  Plant response rating, Velvetleaf: 0
[4]; [17]
  Plant response rating, Velvetleaf: 0
[5]; [11]
  Plant response rating, Morningglory: 0
[5]; [15]
  Plant response rating, Morningglory: 0
[5]; [16]
  Plant response rating, Morningglory: 0
[5]; [17]
  Plant response rating, Morningglory: 0
Corn (Zea mays); [11]
  Plant response rating, Corn: 0
Corn (Zea mays); [15]
  Plant response rating, Corn: 0
Corn (Zea mays); [16]
  Plant response rating, Corn: 0
Corn (Zea mays); [17]
  Plant response rating, Corn: 0
[6]; [11]
  Plant response rating, Barnyardgrass: 0
[6]; [15]
  Plant response rating, Barnyardgrass: 0
[6]; [16]
  Plant response rating, Barnyardgrass: 0
[6]; [17]
  Plant response rating, Barnyardgrass: 0
[7]; [11]
  Plant response rating, Wheat: 0
[7]; [15]
  Plant response rating, Wheat: 0
[7]; [16]
  Plant response rating, Wheat: 0
[7]; [17]
  Plant response rating, Wheat: 0
[8]; [11]
  Plant response rating, Foxtail, Giant: 0
[8]; [15]
  Plant response rating, Foxtail, Giant: 0
[8]; [16]
  Plant response rating, Foxtail, Giant: 0
[8]; [17]
  Plant response rating, Foxtail, Giant: 70
[9]; [11]
  Plant response rating, Pigweed: 0
[9]; [15]
  Plant response rating, Pigweed: 0
[9]; [16]
  Plant response rating, Pigweed: 0
[9]; [17]
  Plant response rating, Pigweed: 20
[10]; [11]
  Plant response rating, Crabgrass, Large: 0
[10]; [15]
  Plant response rating, Crabgrass, Large: 0
[10]; [16]
  Plant response rating, Crabgrass, Large: 0
[10]; [17]
  Plant response rating, Crabgrass, Large: 50
